A short description of series [1]: Cytotoxicity against human HIEC-6 cells assessed as reduction in cell viability incubated for 48 hrs by MTT assay. The format is toxicity, cell-based. The settings on record: HIEC-6 cells. In general terms: Formazan colour is commonly taken as a measure of viable cells.
The test system of the next series is SW480. The series is described as follows: Cytotoxicity against human SW480 cells assessed as reduction in cell viability incubated for 48 hrs by MTT assay. The settings on record: SW480, 48 h.
In another series the test system is HCT-116. Description: Cytotoxicity against human HCT-116 cells assessed as reduction in cell viability incubated for 48 hrs by MTT assay. The settings on record: HCT-116, 48 h.
The test system of another series is COLO 205. The series is described as follows: Cytotoxicity against human COLO 205 cells assessed as reduction in cell viability incubated for 48 hrs by MTT assay. The settings on record: COLO 205, 48 h.
For another series, the system named is NCI-H358. The series is described as follows: Cytotoxicity against human NCI-H358 cells assessed as reduction in cell viability incubated for 48 hrs by MTT assay. The settings on record: NCI-H358, 48 h.
For another series, the system named is A2780. The series is described as follows: Cytotoxicity against human A2780 cells assessed as reduction in cell viability incubated for 48 hrs by MTT assay. The settings on record: A2780, 48 h.
A further series deals with K562. The series is described as follows: Cytotoxicity against human K562 cells assessed as reduction in cell viability incubated for 48 hrs by MTT assay. The settings on record: K562, 48 h.
The subject of another series is LoVo. Description: Cytotoxicity against human LoVo cells assessed as reduction in cell viability incubated for 48 hrs by MTT assay.
In another series the test system is SW13. The series is described as follows: Cytotoxicity against human SW13 cells assessed as reduction in cell viability incubated for 48 hrs by MTT assay. The settings on record: SW13, 48 h.
In another series the test system is RKO. The series is described as follows: Cytotoxicity against human RKO cells assessed as reduction in cell viability incubated for 48 hrs by MTT assay.
The test system of series [2] is SW-620. Description: Cytotoxicity against human SW620 cells assessed as reduction in cell viability incubated for 48 hrs by MTT assay. The settings on record: SW-620, 48 h.
For series [3], the system named is SW-620. The series is described as follows: Downregulation of KDM4B level in human SW620 cells at 1.25 to 10 uM measured after 12 hrs by immunoblot analysis. The settings on record: dose 1.25-10 µM. Type of series: functional, cell-based. (In general: In western blotting, separated proteins are transferred to a membrane and probed.)
The test system of series [4] is SW-620. The series is described as follows: Downregulation of PROX1 level in human SW620 cells at 1.25 to 10 uM measured after 12 hrs by immunoblot analysis. The format is functional, cell-based. The settings on record: dose 1.25-10 µM.
Series [5] relates to SW-620. Description: Effect on ATM mRNA level in human SW620 cells at 2.5 to 10 uM incubated for 12 hr by RT-PCR analysis. Type of series: functional, cell-based. The settings on record: dose 2.5-10 µM.
Series [6] has as its system SW-620. The series is described as follows: Antitumor activity against human SW620 cells xenografted in Balb/c nude mouse model assessed as increase in gamma-H2AX at 25 mg/kg/day measured after 14 days by Western blot analysis. Type of series: functional, organism-based. The settings on record: time 14.0 day. A general note: Xenograft models place foreign cells or tissue in a host animal.

The test system of series [7] is SW-620. The series is described as follows: Antitumor activity against human SW620 cells xenografted in Balb/c nude mouse model assessed as inflammatory cell infiltration at 25 mg/kg/day measured after 14 days by H and E staining based analysis. Type of series: functional, organism-based. The settings on record: time 14.0 day.
The subject of series [8] is SW-620. The series is described as follows: Antitumor activity against human SW620 cells xenografted in Balb/c nude mouse model assessed as fibrosis at 25 mg/kg/day measured after 14 days by H and E staining based analysis. Type of series: functional, organism-based. The settings on record: time 14.0 day.
Series [9] concerns SW-620. Description: Antitumor activity against human SW620 cells xenografted in Balb/c nude mouse model assessed as decrease in ATM protein level at 25 mg/kg/day measured after 14 days by Western blot analysis. Type of series: functional, organism-based. The settings on record: time 14.0 day.
Series [10] has as its system SW-620. The series is described as follows: Antitumor activity against human SW620 cells xenografted in Balb/c nude mouse model assessed as necrosis at 25 mg/kg/day measured after 14 days by H and E staining based analysis. Type of series: functional, organism-based. The settings on record: time 14.0 day.
Series [11] has as its system SW-620. Description: Antitumor activity against human SW620 cells xenografted in Balb/c nude mouse model assessed as increase in gamma-H2AX level at 25 mg/kg/day measured after 14 days by Western blot analysis. The format is functional, organism-based. The settings on record: time 14.0 day.
For series [12], the system named is SW-620. Description: Antitumor activity against human SW620 cells xenografted in Balb/c nude mouse model assessed as increase in cleaved-caspase 3 level at 25 mg/kg/day measured after 14 days by Western blot analysis. The settings on record: time 14.0 day. The format is functional, organism-based.
The subject of series [13] is SW-620. The series is described as follows: Antitumor activity against human SW620 cells xenografted in Balb/c nude mouse model assessed as decrease in cleaved caspase 3 level at 25 mg/kg/day measured after 14 days by Western blot analysis. The format is functional, organism-based. The settings on record: time 14.0 day.
Series [14] relates to SW-620. Description: Antitumor activity against human SW620 cells xenografted in Balb/c nude mouse model assessed as decrease in pro-caspase 3 level at 25 mg/kg/day measured after 14 days by Western blot analysis. The format is functional, organism-based. The settings on record: time 14.0 day.
Series [15] deals with SW-620. The series is described as follows: Antitumor activity against human SW620 cells xenografted in Balb/c nude mouse model assessed as reduction in tumor load at 25 mg/kg/day administered for 14 days by vernier caliper based analysis. Type of series: functional, organism-based. The settings on record: time 14.0 day.
For series [16], the system named is SW-620. The series is described as follows: Antitumor activity against human SW620 cells xenografted in Balb/c nude mouse model assessed as decrease in BCL2 protein level at 25 mg/kg/day measured after 14 days by Western blot analysis. Type of series: functional, organism-based. The settings on record: time 14.0 day.

Calls of active or inactive are those of the source. The calls are words filed in the database; no cut-off is given here.

One may read the IC50 as the concentration at which inhibition is half-maximal. For the molecule `CC(C)n1c(=O)n(C)c2cnc3cc(F)c(-c4ccc(OCCCN5CCCCC5)nc4)cc3c21` [AZD-1390], the IC50 at 48 h in series [1] is more than 20 µM. Also, the IC50 in the series with SW480, in the series on HCT-116, in the series on COLO 205, with NCI-H358, in the series with A2780 and in the series with K562 was more than 20 µM each time. In addition, the IC50 in the series with LoVo, in the series on SW13, with RKO and in the series with SW-620 [2] was more than 20 µM in each case.
In the case of `O=C1CCC(N2Cc3c(NCCCCCCn4cc(CCCN5C(=O)/C(=C6/C(=O)Nc7ccccc76)c6ccccc65)nn4)cccc3C2=O)C(=O)N1` (stereo not drawn), the IC50 at 48 h in [1] is more than 20 µM. The IC50 with SW480 was more than 20 µM; in the series on HCT-116 it was more than 20 µM; with COLO 205, more than 20 µM; in the series with NCI-H358, more than 20 µM; in the series with A2780, 7.47 µM; in the series on K562, more than 20 µM. Besides, the IC50 is 15.1 µM with LoVo, more than 20 µM with SW13, 6.79 µM in the series on RKO and 7.76 µM in the series on SW-620 [2].
Regarding `CN1C(=O)/C(=C2/C(=O)Nc3ccccc32)c2ccccc21` [MEISOINDIGO], in series [1], the IC50 at 48 h turned out to be 12 µM. In addition, the outcome in the series with SW-620 [3] and in the series with SW-620 [4] was Active. Also, the IC50 was 2.8 µM in the series on SW480; 5.36 µM in the series on HCT-116; 7.55 µM in the series with COLO 205; more than 20 µM with NCI-H358; 6.57 µM with A2780; 8.17 µM in the series on K562. The IC50 turned out to be 12.7 µM in the series on LoVo, 12.9 µM with SW13, 11.6 µM with RKO and 9.14 µM in the series with SW-620 [2]. Further, the outcome with SW-620 [5] was inactive.
Take `Cc1ncsc1-c1ccc(CNC(=O)[C@@H]2C[C@@H](O)CN2C(=O)[C@@H](NC(=O)OC(C)(C)C)C(C)(C)C)cc1`: in series [1], the IC50 at 48 h was more than 20 µM. Moreover, the IC50 in the series with SW480, in the series with HCT-116, in the series with COLO 205, with NCI-H358, in the series on A2780 and in the series with K562 was more than 20 µM in each case. Moreover, the IC50 with LoVo, in the series on SW13, in the series on RKO and in the series on SW-620 [2] was more than 20 µM throughout.
`C[C@@H]1COCCN1c1cc(C2([S@](C)(=N)=O)CC2)nc(-c2cc[nH]c3nccc2-3)n1`: the result in the series with SW-620 [6], in the series with SW-620 [7], in the series on SW-620 [8], with SW-620 [9], in the series on SW-620 [10] and in the series with SW-620 [11] was Active. For the same molecule, the outcome in the series on SW-620 [12], in the series on SW-620 [13], in the series with SW-620 [14], with SW-620 [15] and in the series with SW-620 [16] was Active.
Consider `O=c1[nH]cc(F)c(=O)[nH]1` [FLUOROURACIL], for which, in series [1], the concentration for half-maximal inhibition (IC50) at 48 h was 18.6 µM. Moreover, the IC50 in the series with SW480 was 12.6 µM; in the series on COLO 205, 4.54 µM; in the series with NCI-H358, more than 20 µM; with A2780, 12.9 µM; in the series on K562, more than 20 µM; in the series on LoVo, 9.89 µM. Further, the IC50 in the series with SW13 was more than 20 µM; in the series with RKO, 3.43 µM; with SW-620 [2] it was 13.8 µM.
